In the supplement of paper PMC8882468:

Assays:
Assay in all cases: CTG-3D luminescence at 96 h relative to day-0 seeding control (ratio to day 0); higher = more growth / less cytotoxicity; PDxO 3D drug screen (set 2), 96 h, CTG-3D normalised to day-0 seeding control.
HCI-005.E2 = system: HCI-005.E2 (organoid from a breast cancer xenograft with a HER2-positive history)
HCI-017.E2 = system: HCI-017.E2 (organoid from an ER-positive breast cancer xenograft)
HCI-019 = system: HCI-019 (organoid from a triple-negative breast cancer xenograft)
HCI-001 = system: HCI-001 (organoid from a triple-negative breast cancer xenograft)
HCI-015 = system: HCI-015 (organoid from a triple-negative breast cancer xenograft)
HCI-010 = system: HCI-010 (organoid from a breast cancer xenograft)

CC(C)n1nc(-c2ccc3oc(N)nc3c2)c2c(N)ncnc21 [sapanisertib]
CTG-3D luminescence at 96 h
Settings | 12.5 pM | 0.00025 µM | 0.005 µM | 0.1 µM | 1 µM | 10 µM | 100 µM | 625 fM
HCI-005.E2 | 1.96 | 2.23 | 2.42 | 1.23 | 0.685 | 0.506 | 0.0873 | 1.98
HCI-017.E2 | 2.17 | 2.44 | 1.79 | 0.877 | 0.558 | 0.399 | 0.125 | 2.58

CTG-3D luminescence at 96 h
Settings | 12.5 pM | 0.00025 µM | 0.005 µM | 0.1 µM | 1 µM | 10 µM | 100 µM | 625 fM
HCI-001, days in culture: 365 | 2.81 | 2.2 | 2.02 | 1.47 | 0.787 | 0.663 | 0.424 | 1.97
HCI-001, days in culture: 397 | 1.78 | 1.58 | 1.37 | 0.91 | 0.823 | 0.77 | 0.471 | 1.56
HCI-001, days in culture: 401 | 1.48 | 1.97 | 1.53 | 0.815 | 0.544 | 0.657 | 0.396 | 1.63
HCI-010, days in culture: 79 | 1.62 | 1.71 | 1.53 | 0.599 | 0.388 | 0.119 | 0.00579 | 1.95
HCI-010, days in culture: 86 | 2.29 | 2.56 | 2.36 | 0.928 | 0.647 | 0.182 | 0.012 | 2.51
HCI-010, days in culture: 102 | 1.31 | 1.4 | 1.07 | 0.401 | 0.241 | 0.0381 | 0.00408 | 1.02
HCI-010, days in culture: 164 | 1.54 | 1.67 | 1.55 | 0.695 | 0.643 | 0.245 | 0.0314 | 1.37
HCI-015, days in culture: 333 | 1.82 | 1.45 | 1.21 | 0.567 | 0.461 | 0.114 | 0.0973 | 1.56
HCI-015, days in culture: 355 | 2.17 | 1.74 | 1.65 | 1.3 | 0.564 | 0.557 | 0.233 | 1.38
HCI-015, days in culture: 369 | 2.06 | 1.61 | 2.17 | 0.797 | 0.611 | 0.449 | 0.336 | 1.68
HCI-017.E2, days in culture: 85 | 2.14 | 1.78 | 2.08 | 0.908 | 0.515 | 0.249 | 0.14 | 2.37
HCI-019, days in culture: 173 | 2.61 | 0.967 | 1.48 | 1.01 | 0.438 | 0.352 | 0.0514 | 1.71
HCI-019, days in culture: 194 | 1.66 | 1.19 | 1.63 | 0.737 | 0.441 | 0.49 | 0.0673 | 3.01
HCI-019, days in culture: 215 | 1.78 | 1.21 | 1.14 | 0.664 | 0.531 | 0.192 | 0.0431 | 1.84
